Key:
[1] = tested on: adults with biopsy-confirmed NASH; assay: MAESTRO-NASH: non-invasive predictive markers of biopsy response; type: in vivo, human; settings: 100 mg
Description: Histologic endpoints were assessed after 52 weeks. […] The non-invasive correlates of response in the MAESTRO-NASH trial are summarized below.
Adults with ≥3 metabolic risk factors, liver stiffness ≥8.5 kPa, hepatic fat ≥8%, biopsy-confirmed NASH with F1B-F3 fibrosis, and NAS≥4 were eligible to participate in MAESTRO-NASH.
Random Forest model was utilized to determine the biomarkers and imaging tests both at baseline and change from baseline that had the most important association with response on biopsy for NASH resolution and/or fibrosis improvement. The data was based on baseline characteristics and change from baseline of more than 40 variables: biomarkers, clinical features, and imaging. This analysis confirmed the importance of MRI-PDFF (FIGS. 42-43).

[2] = human, in vivo
Description: Following once daily doses, steady state was typically reached within 3 to 6 days of dosing.

CC(C)c1cc(Oc2c(Cl)cc(-n3nc(C#N)c(=O)[nH]c3=O)cc2Cl)n[nH]c1=O [Resmetirom, 2-(3,5-dichloro-4-((5-isopropyl-6-oxo-1,6-dihydropyridazin-3-yl)oxy)phenyl)-3,5-dioxo-2,3,4,5-tetrahydro-1,2,4-triazine-6-carbonitrile]
NASH resolution responders with at least a 30% PDFF response [1]: 96% | fibrosis improvement responders with at least a 30% PDFF response [1]: 88% | exposure increase following once daily dosing [2]: 1.5- to 3 fold | exposure vs dose [2]: greater than dose proportional | steady state exposure vs dose [2]: dose proportional | time to steady state [2]: 3 to 6 days
